Source: US6710075B2, “Therapeutic compounds and methods” (The Government of the State of Sarawak, Malaysia, priority 2000, dated 2004)

Columns and labels:
[1] = system: Tumour Necrosis Factor-α (TNF-α); assay: Inhibition of TNF-α production by LPS-activated THP-1 cells (sandwich ELISA); type: cell-based, human; settings: 18 hours
Excerpt: (§1) (a) Compounds A and B were identified from a bark sample of Aglaia leptantha through their ability to inhibit production of Tumour Necrosis Factor-α (TNF-α) by THP-1 human promonocytic leukemia cells (Tsuchiya, et al, Int. J. Cancer, 1980, 26(2):171-6) activated with lipopolysaccharide (LPS). Table 4 summarises the results comparing the activity of Compounds A and B for inhibition of TNF-α production to their effects on general cell metabolism measured using WST-1 reduction, DNA synthesis and protein synthesis assays for THP-1 cells. […] For comparison, the effects of Compounds A and B on A549 lung epithelial carcinoma cells (Leiber et al, Int. J. Cancer, 1976, 17(1)-62-70) were also measured and the data is also included in Table 4.

PC3 = assay: Cytotoxic activity, sub-diploid DNA content by flow cytometry (propidium iodide); type: cell-based, human; settings: PC3, 6 days; read-out: LC50 (6 day cultures)
Protocol: (§2) (b) Compound A was assessed for cytotoxic and cytostatic activity against a panel of cell lines derived from a variety of human tumour types in addition to THP-1 and A549 cells (Table 5). These included K562 leukemic cells (Lozzio and Lozzio, 1975, Blood 45:321-34), PC3 prostate tumour cells (Kaighn et al., 1979, Invest. Urol. 17:16-23) and SF268 glioblastoma cells (Westphal et al, 1985, Biochem. Biophys. Res. Commun., 132:284-9). […] However, the cytotoxic potency of Compound A increased dramatically after 6 days of culture for the K562, A549 and SF268 cells.

A549 [2] = assay: as above; type: cell-based, human; settings: A549, 6 days; read-out: LC50 (6 day cultures)
Protocol: as §2

THP-1 = assay: as above; type: cell-based, human; settings: THP-1, 6 days; read-out: LC50 (6 day cultures)
Protocol: as §2

K562 = assay: as above; type: cell-based, human; settings: K562, 6 days; read-out: LC50 (6 day cultures)
Protocol: as §2

SF268 = assay: as above; type: cell-based, human; settings: SF268, 6 days; read-out: LC50 (6 day cultures)
Protocol: as §2

[3] = system: Intercellular Adhesion Molecule-1 (ICAM-1); assay: IL-1-induced ICAM-1 surface expression by A549 cells (Delfia); type: cell-based, human; settings: 24 hours, read-out: IC50 ICAM-1 Production
Excerpt: as §1

A549 cells [4] = assay: Protein synthesis, [14C]-leucine uptake, A549 cells; type: cell-based, human; settings: 72 hours
Excerpt: as §1

K562 leukemic cells = assay: DNA content analysis (cell cycle) of K562 leukemic cells; type: cell-based, human; settings: K562, 10-15 nM, 3 days
Protocol: K562 cells were cultured for 3 days with the indicated concentration of Compounds A or B then collected and fixed in 70% ethanol prior to staining with propidium iodide and DNA content determined by flow cytometry. The numbers indicate the % of cells in G0/G1, S and G2/M phases of the cell cycle respectively relative to all cells with ≧2N DNA content.

THP-1 cells [5] = assay: DNA synthesis, [14C]-thymidine uptake, THP-1 cells; type: cell-based, human; settings: 48 hours
Excerpt: as §1

A549 cells [6] = assay: DNA synthesis, [14C]-thymidine uptake, A549 cells; type: cell-based, human; settings: 72 hours
Excerpt: as §1

THP-1 cells [7] = assay: WST-1 reduction by THP-1 cells; type: cell-based, human
Excerpt: as §1

THP-1 cells [8] = assay: Protein synthesis, [14C]-leucine uptake, THP-1 cells; type: cell-based, human; settings: 48 hours
Excerpt: as §1

A549 cells [9] = assay: Senescence-associated β-galactosidase (SA-β-gal) activity staining; type: cell-based, human; settings: A549, 250 nM doxorubicin, 10 days
Protocol: A549 cells were seeded at 10,000 cell/well in 6 well plates in the presence or absence of varying concentrations of Compound A (10-50 nM) or 250 nM doxorubicin for 10 days prior to their processing and staining overnight for senescence-associated β-galactosidase activity as described previously (Dimri et al., 1995, Proc Natl Acad Sci USA 1995 92(20):9363-7). […] PC, phase contrast microscopy. BF, bright field microscopy Magnification×200.
This was evaluated further by measuring senescence-associated β-galactosidase (SA-β-gal) activity, a biomarker previously described to correlate well with senescence of human cells (Dimri et al., Proc Natl Acad Sci USA 1995 92(20):9363-7). […] Therefore, in addition to Compound A A549 cells were also treated with doxorubicin as an experimental control.

A549 cells [10] = assay: Effect on cell cycle arrest and cell death induced by anti-cancer agents, DNA content analysis; type: cell-based; settings: 3 days
Protocol: A549 cells in 6 well plates were cultured for 3 days in the presence or absence of 10 nM Compound A together with 0.1 μM camptothecin, 10 μM vinblastin, 1 μM paclitaxel or 1 μM staurosporine as indicated. The cells were then collected and fixed in 70% ethanol prior to staining with propidium iodide and DNA content determined by flow cytometry. The numbers indicate the % of cells in the various cell cycle phases relative to all cells with ≧2N DNA content and also the % dead cells (ie. subdiploid ≦2N cells) to the left of the dotted marker that arose during the culture period.
This was examined in more detail using DNA content analysis to specifically measure cell cycle progression and cell death. In this experiment in addition to camptothecin and paclitaxel cells were also treated with vinblastin (another microtubule inhibitor) (Sorger et al., 1997, supra) and staurosporine (a kinase inhibitor) (Gescher, Crit Rev Oncol Hematol., 2000, 34(2):127-35).

THP-1 cells [11] = assay: Cell death as loss of membrane integrity, YOYO-1 uptake; type: cell-based; settings: Homo sapiens, THP-1, 72 h, read-out: LC50
Excerpt: (§3) (a) Table 8 compares the cytostatic and cytotoxic effects of Compound A to three previously identified 1H-cyclopenta[b]benzofuran lignans that lack the dioxanyloxy group at the C6-position. The reference compounds are: Rocaglaol (Reference Compound 1) (Ohse et al., J Nat Prod, 1996, 59(7):650-52); 4′-Demethoxy-3′,4′-methylenedioxyrocaglaol (Reference Compound 2) and Methyl 4′-demethoxy-3′,4′-methylenedioxyrocaglate (Reference Compound 3) (Lee et al., Chem Biol Interact, 1998, 115(3):215-28).

A549 cells [12] = assay: as above; type: cell-based; settings: Homo sapiens, A549, 72 h, read-out: LC50
Excerpt: as §3

A549 [13] = assay: Cytostatic activity, relative cell number by YOYO-1 DNA dye; type: cell-based, human; settings: Homo sapiens, 72 h; A549, lung; read-out: GI50 (3 day cultures)
Protocol: as §2

THP-1 cells [14] = assay: DNA content analysis (cell cycle and viability) of THP-1 cells; type: cell-based, human; settings: THP-1, 1000 nM paclitaxel, 2 days
Protocol: THP-1 cells were cultured for 2 days with the indicated concentration of Compound A or 1000 nM paclitaxel then collected and fixed in 70% ethanol prior to staining with propidium iodide and DNA content determined by flow cytometry. The numbers indicate the % of cells in the various cell cycle phases relative to all cells with ≧2N DNA content and also the % dead cells (ie. subdiploid≦2N cells) to the left of the marker (the vertical line) that arose during the culture period.

[15] = THP-1 leukemic cells, cultured with compound for 3 days, read-out: IC50 (reduction of WST-1)

Question: `COC(=O)[C@H]1[C@@H](O)[C@@]2(O)c3c(OC)cc(OC4OC(C(O)CO)COC4OC)cc3O[C@@]2(c2ccc(OC)cc2)[C@@H]1c1ccccc1` (single isomer, unassigned) [Compound B] was tested. Which IC50 [1] did it give?
Answer: 15 nM

Question: And the CC50 (PC3)?
Answer: 12 nM

Question: And the CC50 (A549 [2])?
Answer: 12 nM

Question: What about the CC50 (THP-1) of the same molecule?
Answer: 15 nM

Question: What about the CC50 (K562) of the same molecule?
Answer: 15 nM

Question: What about the CC50 (SF268) of the same molecule?
Answer: 22 nM

Question: What about the IC50 [3] of the same molecule?
Answer: 5000 nM

Question: And the IC50 (A549 cells [4])?
Answer: 10 nM

Question: And the “cell cycle phase accumulation” value (K562 leukemic cells)?
Answer: characteristic accumulation of cells in G2/M phases of the cell cycle

Question: What about the IC50 (THP-1 cells [5]) of the same molecule?
Answer: 3 nM

Question: And the IC50 (A549 cells [6])?
Answer: 4 nM

Question: And the IC50 (THP-1 cells [7]; THP-1 cells, 18 hours of culture, read-out: IC50 WST-1 Reduction)?
Answer: 40 nM

Question: What about the IC50 (THP-1 cells [7]; [15]) of the same molecule?
Answer: 1.5 nM

Question: And the IC50 (THP-1 cells [8])?
Answer: 3 nM

Question: For `COc1cccc2c1C(=O)c1c(O)c3c(c(O)c1C2=O)C[C@@](O)(C(=O)CO)C[C@@H]3O[C@H]1C[C@H](N)[C@H](O)[C@H](C)O1` [doxorubicin, reference compound], which SA-β-gal activity (A549 cells [9]) is on record?
Answer: exhibited SA-β-gal activity

Question: How did the “cell cycle phase accumulation” value (A549 cells [10]; A549, 0.1 μM camptothecin) turn out when `CC[C@@]1(O)C(=O)OCc2c1cc1n(c2=O)Cc2cc3ccccc3nc2-1` [camptothecin, reference compound] was run?
Answer: accumulation of cells in S phase of the cell cycle

Question: For `COC(=O)[C@H]1[C@@H](O)[C@@]2(O)c3c(OC)cc(OC4OC(C(COC(C)=O)OC(C)=O)COC4OC)cc3O[C@@]2(c2ccc(OC)cc2)[C@@H]1c1ccccc1` (stereo partly drawn) [Compound B′], which IC50 (THP-1 cells [7]; [15]) is on record?
Answer: 0.7 nM

Question: Which CC50 (THP-1 cells [11]) does the source give for `COc1cc(OC)c2c(c1)OC1(c3ccc4c(c3)OCO4)C(c3ccccc3)CC(O)C21O` (stereo not drawn) [Reference Compound 2, 4′-Demethoxy-3′,4′-methylenedioxyrocaglaol] here?
Answer: > 5000 nM

Question: What about the CC50 (A549 cells [12]) of the same molecule?
Answer: > 5000 nM

Question: What about the GI50 (A549 [13]) of the same molecule?
Answer: 389 nM

Question: How did the “cell cycle phase accumulation” value (A549 cells [10]; A549, 10 μM vinblastin) turn out when `CC[C@]1(O)C[C@@H]2CN(CCc3c([nH]c4ccccc34)[C@@](C(=O)OC)(c3cc4c(cc3OC)N(C)[C@H]3[C@@](O)(C(=O)OC)[C@H](OC(C)=O)[C@]5(CC)C=CCN6CC[C@]43[C@@H]65)C2)C1` [vinblastin, reference compound] was run?
Answer: majority of cells arresting in the G2/M phases of the cell cycle

Question: What does the source list for `COc1ccc(C23Oc4cc(OC)cc(OC)c4C2(O)C(O)CC3c2ccccc2)cc1` (stereo not drawn) [Reference Compound 1, Rocaglaol]?
Answer: CC50 (THP-1 cells [11]): > 5000 nM; CC50 (A549 cells [12]): > 5000 nM; GI50 (A549 [13]): 3980 nM

Question: What does the source list for `CC(=O)O[C@H]1C(=O)[C@@]2(C)[C@H]([C@H](OC(=O)c3ccccc3)[C@]3(O)C[C@H](OC(=O)[C@H](O)[C@@H](NC(=O)c4ccccc4)c4ccccc4)C(C)=C1C3(C)C)[C@]1(OC(C)=O)CO[C@@H]1C[C@@H]2O` [paclitaxel, reference compound]?
Answer: cell cycle phase accumulation (A549 cells [10]; A549, 1 μM paclitaxel): majority of cells arresting in the G2/M phases of the cell cycle; cell cycle phase accumulation (THP-1 cells [14]): caused cells to accumulate in the G2/M phases of the cell cycle

Question: `COC(=O)C1C(O)C2(O)c3c(OC)cc(OC)cc3OC2(c2ccc3c(c2)OCO3)C1c1ccccc1` (stereo not drawn) [Reference Compound 3, Methyl 4′-demethoxy-3′,4′-methylenedioxyrocaglate] was tested. Which CC50 (THP-1 cells [11]) did it give?
Answer: > 5000 nM

Question: And the CC50 (A549 cells [12])?
Answer: > 5000 nM

Question: What about the GI50 (A549 [13]) of the same molecule?
Answer: 56 nM

Question: With `COC(=O)[C@H]1[C@@H](O)[C@@]2(O)c3c(OC)cc(OC4OC(C(COC(C)=O)OC(C)=O)COC4OC)cc3O[C@@]2(c2ccc(OC)cc2)[C@@H]1c1ccccc1` (stereo partly drawn) [Compound A′] as the molecule, how does the IC50 (THP-1 cells [7]; [15]) read?
Answer: 0.3 nM
